Experimental findings from ChEMBL document CHEMBL1201862, “PubChem BioAssay data set” (2004) are described below.

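Values below derive from 48-hour exposures of cells grown in 96-well plates, with endpoints linearly interpolated between the two concentrations bracketing the appropriate inhibition level. GI50 is the concentration that inhibits growth by half.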 Calls of active or inactive are those of the source. Cut-off read from the data, not from the text of the source: active = GI50 up to about 1.1 µM and inactive = higher.

Test systems include SN12C; HOP-62; HT-29; HOP-92; SF-295; K562; OVCAR-5; M14; OVCAR-4; SF-539; M19-MEL; NCI-H460; OVCAR-8; SK-MEL-5; MOLT-4; SR; EKVX; SK-MEL-2.
What all share (experiment): NCI anticancer screen, dose series, 48 h

`O=C(/C=C/c1ccccc1)Oc1cccc2cccnc12`: the GI50 in the assay with SN12C was 3.97 µM (inactive); in the assay on HOP-62, 21.2 µM (inactive); in the assay on HT-29 it was 7.93 µM (inactive); in the assay with HOP-92 it was 17.5 µM (inactive); in the assay on SF-295 it was 8.28 µM (inactive); with K562, 3.85 µM (inactive). Moreover, the GI50 was 14.7 µM (inactive) in the assay on OVCAR-5; 4.11 µM (inactive) in the assay with M14; 6.87 µM (inactive) with OVCAR-4; 3.93 µM (inactive) in the assay with SF-539; 13.2 µM (inactive) in the assay on M19-MEL; 3.62 µM (inactive) with NCI-H460. For the same compound, the GI50 in the assay on OVCAR-8 is 4.02 µM (inactive); with SK-MEL-5 it was 7.74 µM (inactive); in the assay with MOLT-4, 3.2 µM (inactive); in the assay with SR it was 1.57 µM (inactive); in the assay on EKVX, 6.65 µM (inactive).

As for `O=c1c2cc(Br)ccc2[nH]c(=S)n1-c1ccccc1`, the GI50 with SK-MEL-2, in the assay on SN12C, in the assay on HOP-62, in the assay with HT-29, with HOP-92 and in the assay with SF-295 was > 100 µM (inactive) each time. Besides, the GI50 in the assay with K562, in the assay with OVCAR-5, in the assay on M14, in the assay on OVCAR-4, with SF-539 and in the assay with M19-MEL was > 100 µM (inactive) each time. The GI50 in the assay with NCI-H460, in the assay on OVCAR-8, in the assay with SK-MEL-5 and in the assay on EKVX was > 100 µM (inactive) each time.

With `CNS(=O)(=O)NN(C)S(=O)(=O)c1ccccc1`, the GI50 with SK-MEL-2, with SN12C, with HOP-62, with HT-29, in the assay with SF-295 and with K562 was > 100 µM (inactive) throughout. In addition, the GI50 in the assay on M14 was > 100 µM (inactive); with OVCAR-4, > 100 µM (inactive); with SF-539, > 100 µM (inactive); with M19-MEL, > 100 µM (inactive); in the assay on NCI-H460, 85.9 µM (inactive); with OVCAR-8, > 100 µM (inactive). In addition, the GI50 in the assay with SK-MEL-5, in the assay with MOLT-4, with SR and in the assay with EKVX was > 100 µM (inactive) each time.

On to `COC(=O)C12CC(C3CC31)C1CC12` (configuration not stated), for which the GI50 in the assay on SN12C was > 100 µM (inactive); in the assay on HOP-62 it was > 100 µM (inactive); in the assay on HT-29, > 100 µM (inactive); with HOP-92, 59 µM (inactive); in the assay on SF-295 it was > 100 µM (inactive); in the assay with K562, > 100 µM (inactive). Moreover, the GI50 in the assay with OVCAR-5, with M14, with OVCAR-4, with M19-MEL, in the assay with NCI-H460 and in the assay with OVCAR-8 was > 100 µM (inactive) each time. Moreover, the GI50 in the assay on SK-MEL-5, with MOLT-4 and in the assay with SR was > 100 µM (inactive) throughout.

In the case of `CC(C)(C)N/N=C(\C(=O)Nc1cccc(Cl)c1)C1C(=O)Nc2ccccc2[S+]1[O-]` (configuration not stated), the GI50 in the assay on SK-MEL-2 was > 100 µM (inactive); in the assay on SN12C it was > 100 µM (inactive); in the assay with HOP-62, > 100 µM (inactive); with HT-29, > 100 µM (inactive); with HOP-92, 74.8 µM (inactive); in the assay with SF-295, > 100 µM (inactive). For the same compound, the GI50 in the assay with M14, in the assay on OVCAR-4, in the assay on SF-539, in the assay on M19-MEL, in the assay on NCI-H460 and in the assay on OVCAR-8 was > 100 µM (inactive) throughout. The GI50 in the assay on SK-MEL-5, in the assay on MOLT-4, with SR and in the assay with EKVX was > 100 µM (inactive) in each case.

Take `O=c1n(-c2ccccc2)c(=O)n2n1C1C=CC2C2C(C1)C2(Cl)Cl` (configuration not stated): the GI50 in the assay with SK-MEL-2, with SN12C, in the assay with HOP-62, in the assay with SF-295, in the assay on K562 and in the assay on OVCAR-5 was > 100 µM (inactive) throughout. The GI50 with M14, with OVCAR-4, in the assay on SF-539, in the assay with M19-MEL, in the assay on NCI-H460 and in the assay with OVCAR-8 was > 100 µM (inactive) in each case. The GI50 in the assay with SK-MEL-5, in the assay on MOLT-4, in the assay on SR and in the assay on EKVX was > 100 µM (inactive) throughout.

In the case of `CC1=C(C(=O)Nc2ccccc2)C(c2ccccc2)C(C(=O)Nc2ccccc2)=C(C)N1`, the GI50 was 32.1 µM (inactive) with SK-MEL-2; > 100 µM (inactive) with SN12C; > 100 µM (inactive) with HOP-62; 32.2 µM (inactive) in the assay with HT-29; 29.3 µM (inactive) with HOP-92; 38.5 µM (inactive) in the assay with SF-295. The GI50 with OVCAR-5 is > 100 µM (inactive); in the assay on M14 it was 31.5 µM (inactive); with OVCAR-4 it was 60.7 µM (inactive); in the assay with SF-539 it was > 100 µM (inactive); with M19-MEL it was 28.9 µM (inactive); in the assay with NCI-H460, 45.8 µM (inactive). Moreover, the GI50 in the assay on OVCAR-8 was 75 µM (inactive); in the assay with SK-MEL-5, 36.9 µM (inactive); in the assay on MOLT-4, 18.7 µM (inactive); in the assay on EKVX, 76.4 µM (inactive).

With `CC(C)(C)c1cc(C(O)(C(F)(F)F)C(F)(F)F)c2c(c1)C(C(F)(F)F)(C(F)(F)F)OC(C)(C(C)(C)C)N2` (configuration not stated), the GI50 in the assay on SK-MEL-2 was 4.72 µM (inactive); with SN12C it was 4.45 µM (inactive); in the assay with HT-29 it was 3.4 µM (inactive); in the assay on HOP-92, < 0.01 µM (active); with SF-295, 4.73 µM (inactive); with K562 it was 2.9 µM (inactive). Also, the GI50 is 7.13 µM (inactive) in the assay on OVCAR-5; 0.653 µM (active) in the assay on M14; 4.62 µM (inactive) in the assay on OVCAR-4; 3.55 µM (inactive) in the assay with SF-539; 3.05 µM (inactive) with M19-MEL; 2.48 µM (inactive) with NCI-H460. Further, the GI50 with OVCAR-8 was 4.9 µM (inactive); with SK-MEL-5, 2.01 µM (inactive); in the assay with MOLT-4, 2.54 µM (inactive); with SR, 2.82 µM (inactive); in the assay with EKVX it was 3.94 µM (inactive).

For the compound `O=C1CCCCCCC2=C1C(Sc1ccccc1)CC2` (configuration not stated), the GI50 was 19.9 µM (inactive) with SN12C; > 100 µM (inactive) in the assay on HOP-62; 34 µM (inactive) in the assay with HT-29; 45 µM (inactive) with SF-295; 27.2 µM (inactive) in the assay on K562; 45.9 µM (inactive) in the assay with M14. For the same compound, the GI50 with OVCAR-4 is 63.2 µM (inactive); with M19-MEL, 50.2 µM (inactive); in the assay with NCI-H460 it was 27.2 µM (inactive); in the assay with OVCAR-8 it was 23 µM (inactive); with SK-MEL-5 it was 30.5 µM (inactive); with MOLT-4, 18.1 µM (inactive). The GI50 in the assay on SR was 18.2 µM (inactive); with EKVX, 20.5 µM (inactive).

Regarding `CN1C(=O)CC2(C)c3cc(O)cc(Br)c3N(C)C12` (configuration not stated), the GI50 in the assay with SK-MEL-2, with SN12C, in the assay with HOP-62, in the assay on HT-29, in the assay with HOP-92 and with SF-295 was > 100 µM (inactive) each time. The GI50 in the assay on K562 is > 100 µM (inactive); with OVCAR-5, > 100 µM (inactive); with M14, > 100 µM (inactive); in the assay on OVCAR-4, > 10 µM (inactive); with SF-539 it was > 100 µM (inactive); in the assay with M19-MEL, > 100 µM (inactive). The GI50 in the assay with NCI-H460, with OVCAR-8, in the assay with SK-MEL-5, in the assay with MOLT-4 and with EKVX was > 100 µM (inactive) throughout.

For `CCCCCCCCCCCCC(Br)C(=O)SCCNC(=O)CCNC(=O)[C@@H](O)C(C)(C)COP(=O)(O)OP(=O)(O)OCC1OC(n2cnc3c(N)ncnc32)C(O)C1OP(=O)(O)O` (some centres not stated), the GI50 in the assay on SK-MEL-2, in the assay with SN12C, in the assay with HOP-62, in the assay with HT-29, with HOP-92 and in the assay with SF-295 was > 56.5 µM (inactive) each time. Besides, the GI50 in the assay with OVCAR-5 was > 56.5 µM (inactive); in the assay with M14, > 56.5 µM (inactive); with OVCAR-4, > 56.5 µM (inactive); in the assay on SF-539 it was > 56.5 µM (inactive); in the assay with M19-MEL, > 56.5 µM (inactive); in the assay with NCI-H460 it was 22.5 µM (inactive). In addition, the GI50 was 54.3 µM (inactive) in the assay with OVCAR-8, > 56.5 µM (inactive) in the assay with SK-MEL-5 and > 56.5 µM (inactive) in the assay with EKVX.

On to `C/C(=C\C(C[C@](C)(O)C(O)CCC#C[Si](C)(C)C)S(=O)(=O)c1ccccc1)CC/C=C/CO[Si](C)(C)C(C)(C)C` (some centres not stated), for which the GI50 with SK-MEL-2 was 18 µM (inactive); in the assay on SN12C, 6.24 µM (inactive); with HOP-62, 21.4 µM (inactive); with HT-29, 3.57 µM (inactive); with HOP-92, 11.9 µM (inactive); in the assay on SF-295, 16.5 µM (inactive). Further, the GI50 in the assay with K562 was 10.7 µM (inactive); with OVCAR-5, 13.7 µM (inactive); in the assay on M14, 17.9 µM (inactive); in the assay with OVCAR-4, 13.8 µM (inactive); with SF-539, 20 µM (inactive); in the assay with M19-MEL it was 17.2 µM (inactive). Besides, the GI50 is 12.5 µM (inactive) in the assay with NCI-H460; 17.2 µM (inactive) in the assay on OVCAR-8; 13.6 µM (inactive) in the assay on SK-MEL-5; 6.95 µM (inactive) with MOLT-4; 19.7 µM (inactive) in the assay with EKVX.
